Measurements: the CheMixHub viscosity set

Test: xn = mol fraction of the nth substance listed

C=CC(=O)OC + CCOCCOCCO
viscosity [mPa·s], 101 kPa
Conditions	293.15 K	298.15 K	303.15 K	308.15 K	313.15 K	318.15 K
x2 = 0.0702	0.594	0.558	0.5	0.469	0.447	0.428
x2 = 0.1404	0.695	0.65	0.607	0.572	0.539	0.507
x2 = 0.2131	0.826	0.767	0.715	0.671	0.624	0.589
x2 = 0.2822	0.95	0.877	0.813	0.756	0.705	0.659
x2 = 0.3597	1.133	1.038	0.955	0.884	0.82	0.762
x2 = 0.4297	1.346	1.226	1.109	1.019	0.941	0.872
x2 = 0.5002	1.574	1.428	1.288	1.171	1.076	0.992
x2 = 0.5703	1.835	1.648	1.479	1.355	1.236	1.125
x2 = 0.6412	2.109	1.904	1.715	1.547	1.405	1.286
x2 = 0.7172	2.478	2.199	1.976	1.782	1.605	1.457
x2 = 0.7906	2.868	2.529	2.247	2.017	1.819	1.656
x2 = 0.8598	3.295	2.893	2.534	2.279	2.031	1.836
x2 = 0.9184	3.692	3.212	2.788	2.508	2.226	2.016

C=CC(=O)OCCCC + CCOCCOCCO
viscosity [mPa·s], 101 kPa
Conditions	293.15 K	298.15 K	303.15 K	308.15 K	313.15 K	318.15 K
x2 = 0.0702	0.966	0.899	0.837	0.782	0.733	0.687
x2 = 0.1444	1.059	0.977	0.904	0.839	0.783	0.733
x2 = 0.2183	1.167	1.07	0.986	0.913	0.849	0.791
x2 = 0.2855	1.287	1.175	1.078	0.994	0.92	0.854
x2 = 0.3658	1.453	1.332	1.207	1.108	1.022	0.947
x2 = 0.4403	1.637	1.499	1.346	1.233	1.127	1.039
x2 = 0.5027	1.819	1.649	1.477	1.343	1.227	1.126
x2 = 0.569	2.028	1.817	1.646	1.488	1.351	1.236
x2 = 0.6545	2.363	2.103	1.884	1.697	1.531	1.393
x2 = 0.7189	2.654	2.336	2.079	1.871	1.672	1.527
x2 = 0.787	2.982	2.609	2.295	2.069	1.842	1.681
x2 = 0.8385	3.27	2.85	2.481	2.243	1.992	1.816
x2 = 0.9319	3.843	3.312	2.873	2.586	2.28	2.07

CCCCCOC(C)=O + CCOc1ccccc1
Conditions	viscosity [mPa·s]
298.15 K, 101 kPa, x2 = 0.5	0.855

CCCCCOC(C)=O + CCc1ccccc1
Conditions	viscosity [mPa·s]
298.15 K, 101 kPa, x2 = 0.089	0.7697

CC(C)CO + CN1CCCC1=O
298.15 K, 101 kPa
Conditions	viscosity [mPa·s]
x2 = 0.0577	2.895
x2 = 0.1202	2.548
x2 = 0.1587	2.399
x2 = 0.2004	2.276
x2 = 0.2421	2.18
x2 = 0.3117	2.053
x2 = 0.368	1.982
x2 = 0.4264	1.931
x2 = 0.4568	1.896
x2 = 0.5217	1.854
x2 = 0.5616	1.83
x2 = 0.6113	1.82
x2 = 0.6662	1.796
x2 = 0.711	1.776
x2 = 0.7618	1.752
x2 = 0.8039	1.747
x2 = 0.8557	1.717
x2 = 0.8982	1.704
x2 = 0.9723	1.677

O=C1CCCN1C1CCCCC1 + CN1CCCC1=O
298.15 K, 100 kPa
Conditions	viscosity [mPa·s]
x2 = 0.0108	10.21
x2 = 0.0206	9.998
x2 = 0.026	9.92
x2 = 0.0415	9.645
x2 = 0.046	9.574
x2 = 0.06	9.318
x2 = 0.0748	9.054
x2 = 0.0872	8.858
x2 = 0.094	8.735
x2 = 0.2076	7.103
x2 = 0.302	5.992
x2 = 0.4096	4.942
x2 = 0.5043	4.171
x2 = 0.61	3.449
x2 = 0.7	2.937
x2 = 0.8042	2.436
x2 = 0.9004	2.038
x2 = 0.9083	2.005
x2 = 0.9175	1.967
x2 = 0.9328	1.93
x2 = 0.9426	1.884
x2 = 0.9516	1.854
x2 = 0.9616	1.837
x2 = 0.9708	1.795
x2 = 0.9798	1.775

C1CCC2=[NH+]CCCN2CC1.c1nc[n-]n1 + CN(C)C=O
303.15 K, 100 kPa
Conditions	viscosity [mPa·s]
x1 = 0.1001	1.42
x1 = 0.2	3.07
x1 = 0.2999	6.28
x1 = 0.4003	11.77
x1 = 0.4989	25.38
x1 = 0.6002	46.11
x1 = 0.7008	98.43
x1 = 0.7993	195
x1 = 0.9002	470.1

O=C1OCCO1 + CNC(C)=O
313.15 K, 101.33 kPa
Conditions	viscosity [mPa·s]
x1 = 0.0747	2.732
x1 = 0.1786	2.456
x1 = 0.2841	2.246
x1 = 0.3817	2.099
x1 = 0.4799	1.984
x1 = 0.5724	1.903
x1 = 0.6726	1.845
x1 = 0.7707	1.814
x1 = 0.869	1.824
x1 = 0.9684	1.893

C1CCC2=[NH+]CCCN2CC1.c1nc[n-]n1 + CO
303.15 K, 100 kPa
Conditions	viscosity [mPa·s]
x1 = 0.1001	5.23
x1 = 0.2	8.57
x1 = 0.2999	24.53
x1 = 0.4003	57.03
x1 = 0.4989	104.5
x1 = 0.6002	205.4
x1 = 0.7008	366.4
x1 = 0.7993	555.9
x1 = 0.9002	882.9

C=CC(=O)OC + CO
viscosity [mPa·s], 101.33 kPa
Conditions	308.15 K	318.15 K
x1 = 0.0546	0.464	0.419
x1 = 0.157	0.443	0.412
x1 = 0.2569	0.426	0.404
x1 = 0.3537	0.413	0.397
x1 = 0.453	0.403	0.388
x1 = 0.501	0.399	0.384
x1 = 0.5588	0.394	0.379
x1 = 0.655	0.39	0.369
x1 = 0.7566	0.387	0.359
x1 = 0.8561	0.387	0.349
x1 = 0.9556	0.389	0.338

CCCCCC + CO
298.15 K, 101.33 kPa
Conditions	viscosity [mPa·s]
x2 = 0.0532	0.313
x2 = 0.0601	0.313
x2 = 0.138	0.317
x2 = 0.154	0.319
x2 = 0.2491	0.334
x2 = 0.8139	0.49
x2 = 0.8529	0.502
x2 = 0.8644	0.506
x2 = 0.9199	0.525
x2 = 0.9494	0.539
x2 = 0.9771	0.547

CCCCCOC(C)=O + CO
303.15 K, 101.3 kPa
Conditions	viscosity [mPa·s]
x1 = 0.0524	0.537
x1 = 0.1018	0.561
x1 = 0.1038	0.533
x1 = 0.1608	0.547
x1 = 0.1934	0.608
x1 = 0.3024	0.652
x1 = 0.4255	0.695
x1 = 0.5168	0.719
x1 = 0.5951	0.733
x1 = 0.6976	0.753
x1 = 0.791	0.775
x1 = 0.8949	0.794

CCOC(=O)CC + CO
303.15 K, 101.33 kPa
Conditions	viscosity [mPa·s]
x1 = 0.1102	0.524
x1 = 0.1551	0.525
x1 = 0.2735	0.526
x1 = 0.3189	0.527
x1 = 0.3721	0.528
x1 = 0.4967	0.527
x1 = 0.5395	0.524
x1 = 0.613	0.521
x1 = 0.6625	0.518
x1 = 0.7231	0.514
x1 = 0.8087	0.508
x1 = 0.9141	0.501

O=C1CCCN1C1CCCCC1 + CO
298.15 K, 100 kPa
Conditions	viscosity [mPa·s]
x1 = 0.0094	0.589
x1 = 0.0192	0.625
x1 = 0.0288	0.657
x1 = 0.0387	0.69
x1 = 0.0495	0.727
x1 = 0.053	0.743
x1 = 0.067	0.804
x1 = 0.0764	0.832
x1 = 0.0858	0.866
x1 = 0.0883	0.874
x1 = 0.094	0.91
x1 = 0.191	1.366
x1 = 0.2811	1.92
x1 = 0.3806	2.649
x1 = 0.48	3.553
x1 = 0.5758	4.526
x1 = 0.6836	5.807
x1 = 0.7845	7.171
x1 = 0.8973	8.652
x1 = 0.9035	8.749
x1 = 0.9182	8.971
x1 = 0.9294	9.118
x1 = 0.9448	9.356
x1 = 0.9517	9.496
x1 = 0.965	9.7
x1 = 0.9749	9.843
x2 = 0.0157	10
